Measured values: patent publication US20040254229A1, “Use of glucose uptake enhancer for reducing apoptosis” (SmithKline Beecham p.l.c. and SmithKline Beecham …, priority 1998, published 2004)

Columns and labels:
[1] = system: isolated working hearts from male Wistar rats; assay: Isolated working hearts from normal male Wistar rats: ventricular function, zero-flow ischaemia and re-perfusion; parameters: species or system rat
Experimental: Test Systems: Male Wistar rats (Charles River; St Aubin lès Elbeuf, France), with a body weight ranging from 260 to 280 g were housed on a 12h/12h light-dark cycle with access to water and standard rat chow ad libitum. An acclimatisation period of at least one week was allowed prior to experiment.
(§1) Perfusion of isolated hearts: Rats were anaesthetized using thiopental sodium (50 mg/kg body weight intraperitoneally). Hearts from normoglycaemic and one-month STZ-induced diabetic rats, were quickly removed and immersed in ice-cold buffer to produce an immediate cessation of contractility. The aorta was dissected free and then mounted onto a cannula attached to a perfusion apparatus. Retrograde perfusion of the heart was started for 10 min by the Langendorff method and then switched to perfusion using the working-heart technique. […] The perfusate was not recirculated. Preload was held at a pressure of 15 cm H2O and afterload, as well as coronary perfusion pressure, were kept constant at 80 cm H2O.
(§2) Aortic and coronary flows ([…]) were measured by timed collection. Cardiac output ([…]) was derived from the sum of the aortic and coronary flows. Stroke volume (ml/beat) was derived by dividing cardiac output by heart rate.
(§3) Induction of global ischaemia and re-perfusion: Total ischaemia was initiated by clamping the left atrium and the aortic perfusion tubes and reducing coronary flow to zero for 30 minutes. The hearts were then re-perfused at 37° C. in working heart mode and recovery of ventricular function was followed for 30 minutes.
(§4) Data Handling & Analysis: The data are presented as the mean±SEM. Statistical significance of differences was determined using Student's t-test. Differences with p<0.05 were considered to be statistically significant.

[2] = system: isolated working hearts from STZ-diabetic rats; assay: Isolated working hearts from STZ-diabetic male Wistar rats: ventricular function, zero-flow ischaemia and re-perfusion; parameters: species or system rat
Experimental: A solution of streptozotocin (STZ commercially available) was prepared in citrate buffer (40 mg/ml).
Induction of experimental diabetes: Male Wistar rats weighing between 300 and 320 g were fasted overnight and made diabetic by a single intravenous injection of STZ, 40 mg/kg body weight. The development of diabetes and its persistence were monitored by serial quantitative measurements of glucose in the urine with reagent strips. On the day of the experiment, the severity of diabetes was assessed by measuring glucose concentrations from blood samples collected at the time of heart excision. Only rats with plasma glucose levels exceeding 20 mM were considered diabetic and included in these experiments.
as §1, §2, §3, §4

[3] = baseline ventricular function, normal male Wistar rats, 1 μM in the perfusate pre-ischaemia, mean±SEM
[4] = baseline ventricular function, STZ-diabetic male Wistar rats, 1 μM in the perfusate pre-ischaemia, n = 6, mean±SEM

CN(CCOc1ccc(CC2SC(=O)NC2=O)cc1)c1ccccn1 (stereo not drawn) [Compound (I), 5-[4-[2-(N-methyl-N-(2-pyridyl)amino)ethoxy]benzyl]thiazolidine-2,4-dione]
Aortic Flow [1, 3]: 34.0 ± 0.7 mL/min
Cardiac Output [1, 3]: 51 ± 1 mL/min
Coronary Flow [1, 3]: 16.6 ± 0.6 mL/min
Heart Rate [1, 3]: 317 ± 15 beats/min
Peak Systolic Pressure [1, 3]: 73 ± 1 mmHg
protective properties in hearts subjected to zero-flow ischaemia in vitro ([1]; normal rat hearts): protective properties of rapid onset
Aortic Flow [2, 4]: 42.3 ± 1.5 mL/min
Cardiac Output [2, 4]: 54.4 ± 1.7 mL/min
Coronary Flow [2, 4]: 12.1 ± 0.4 mL/min
Heart Rate [2, 4]: 225 ± 14 beats/min
Peak Systolic Pressure [2, 4]: 76 ± 2 mmHg
protective properties in hearts subjected to zero-flow ischaemia in vitro ([2]; diabetic rat hearts): protective properties of rapid onset
